Test results published in paper PMC6225302, “Depsidone Derivatives and a Cyclopeptide Produced by Marine Fungus Aspergillus unguis under Chemical Induction and by Its Plasma Induced Mutant” (Molecules : A Journal of Synthetic Chemistry and Natural …, 2018).
≈ marks a conversion by molar mass, not a printed value. Where “and” joins values, the source holds several entries; their conditions need not be identical. Equal values may be shown once. Read-outs that look alike come from different tables or passages of the source. Where a SMILES comes first, the peptide text is derived from it. [ ]: non-standard residue; d: D form. GABA = NCCCC(=O)O

Legend:
[1] = test system: Candida albicans (ATCC 10231); test: Antimicrobial paper disc diffusion method; type: cell-based; conditions: Candida albicans, ATCC10231; C. albicans; 10 μg per disc; paper disc diameter 6.0 mm; mean ± SD of three replicates
Method: (§1) Preliminary antimicrobial tests for compounds 1‒10 were carried out against pathogenetic strains, including Pseudomonas aeruginosa (ATCC 9027), methicillin-resistant Staphylococcus aureus (A7983, clinical isolate donated by Zhijun Yu in Dalian Friendship Hospital, Dalian, China), Vibrio parahemolyticus (ZouB, aquatic pathogen donated by Chongqing Wen in College of Fishery, Guangdong Ocean University, Zhanjiang, China), and Candida albicans (ATCC 10231) using the disc diffusion method. Muller Hinton agar (MHA) and Sabouraud agar (SA) were used for antibacterial and antifungal tests, respectively. For each sample, 10 μg was added onto paper disc (diameter of 6 mm) for tests. The minimum inhibition concentrations (MICs) of the compounds were tested using microdilution methods. Ampicillin and ketoconazole were taken as positive controls for antibacterial and antifungal tests, respectively. Solvents (MeOH and DMSO) were used as blank controls.

[2] = test system: Pseudomonas aeruginosa (ATCC 9027); test: Antimicrobial paper disc diffusion method; type: cell-based; conditions: P. aeruginosa, 10 μg per disc, paper disc diameter 6.0 mm, mean ± SD of three replicates; for zone of inhibition at 10 µg/disc: Pseudomonas aeruginosa, ATCC9027
Method: as §1

[3] = test system: Vibrio parahemolyticus (ZouB); test: Antimicrobial paper disc diffusion method; type: cell-based; conditions: V. parahemolyticus, incomplete inhibition, 10 μg per disc, paper disc diameter 6.0 mm, mean ± SD of three replicates; for zone of inhibition at 10 µg/disc: Vibrio
Method: as §1

[4] = test system: methicillin-resistant Staphylococcus aureus (A7983, clinical isolate); test: Antimicrobial paper disc diffusion method; type: cell-based; conditions: MRSA; for zone of inhibition at 10 µg/disc: Staphylococcus aureus
Method: as §1

[5] = test system: Candida albicans (ATCC 10231); test: Antimicrobial microdilution method (MIC); type: cell-based; conditions: ATCC10231, C. albicans
Method: as §1

[6] = test system: Pseudomonas aeruginosa (ATCC 9027); test: Antimicrobial microdilution method (MIC); type: cell-based; conditions: ATCC9027, P. aeruginosa
Method: as §1

[7] = test system: methicillin-resistant Staphylococcus aureus (A7983, clinical isolate); test: Antimicrobial microdilution method (MIC); type: cell-based; conditions: MRSA
Method: as §1

[8] = test system: Vibrio parahemolyticus (ZouB); test: microbe, parasite or virus in culture; type: cell-based
Method: as §1

[9] = target: T1, Acetylcholinesterase (AChE, from electric eels) (Electrophorus electricus, UniProt O42275); test: AChE inhibition assay (modified Ellman's method); type: biochemical; conditions: AChE Inhibitory Activity (IC50), 0.2 U/mL, 37 °C
T1 construct: purchased Sigma-Aldrich
T1 sequence (O42275 24-633): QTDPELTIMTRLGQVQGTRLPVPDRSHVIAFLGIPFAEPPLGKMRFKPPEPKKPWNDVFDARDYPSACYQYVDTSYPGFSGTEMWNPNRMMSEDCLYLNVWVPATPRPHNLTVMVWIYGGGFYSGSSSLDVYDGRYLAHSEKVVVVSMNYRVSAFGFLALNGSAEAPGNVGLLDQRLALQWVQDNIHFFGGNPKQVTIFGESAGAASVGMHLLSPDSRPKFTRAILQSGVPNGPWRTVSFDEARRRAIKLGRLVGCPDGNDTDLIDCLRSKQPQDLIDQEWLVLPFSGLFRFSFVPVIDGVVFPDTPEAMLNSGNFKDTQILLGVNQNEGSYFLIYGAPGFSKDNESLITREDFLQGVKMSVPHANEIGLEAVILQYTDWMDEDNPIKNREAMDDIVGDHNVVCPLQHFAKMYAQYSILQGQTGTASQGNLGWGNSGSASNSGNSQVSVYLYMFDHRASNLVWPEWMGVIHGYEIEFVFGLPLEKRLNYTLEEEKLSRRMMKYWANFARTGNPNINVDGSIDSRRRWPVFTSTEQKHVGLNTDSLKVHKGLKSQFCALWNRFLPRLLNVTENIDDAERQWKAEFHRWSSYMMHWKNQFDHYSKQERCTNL
Method: Acetylcholinesterase (AChE, from electric eels), acetythiocholine iodide (ATCh), 5,5-dithiobis-(2-nitrobenzoic acid) (DTNB), and bovine serum albumin (BSA, A1933) were purchased from Sigma-Aldrich. 100 mM PBS (pH = 7.4) was prepared with K2HPO4 and KH2PO4. In vitro AChE inhibitory activity was measured in 96-well plates using modified Ellman’s methods. […] Each well contained 1 μL of prepared sample, 49 μL of PBS, 10 μL of enzyme with a final concentration of 0.2 U/mL in BSA ([…] in PBS), and 20 μL of DTNB (5 mM in PBS). Then, the plates were preincubated at 37 °C for 10 min. Afterwards, 20 μL of ATCh (10 mM in PBS) was added into the well. After incubation at 37 °C for 20 min, the 96-well plates were read at 405 nm on the microplate reader, and the inhibition ratios to AChE were calculated using the following equation, where Asample blank stands for the absorbance of a well without enzyme, Asample stands for the absorbance of the treatment, Acontorl stands for the absorbance of the well without the sample, and Ablank stands for the absorbance of the well without the sample and enzyme. Donepezil was taken as a positive control. Inhibition of AChE (%)=[(Acontrol−Ablank)−(Asample−Asample blank)]/(Acontrol−Ablank)×100%
The inhibition rates and concentration logarithm (lnC) values were imported into the Origin 8.0 software (OriginLab Co., Ltd., Northampton, MA, USA). The cubic polynomial regression equation was used to calculate ln(IC50). Then, IC50 was calculated using Microsoft Excel.

[10] = DPPH free radical scavenging assay; conditions: 0.16 mM DPPH, 30 min in darkness at room temperature
Method: The free radical scavenging potentials of compounds 1‒10 were evaluated in 96-well plates using the DPPH free radical scavenging assay described by Sharma and Bhat. A total of 100 μL of the reaction mixture was composed of 50 μL of 0.16 mM DPPH (Sigma-Aldrich, St. Louis, MO, USA) in methanol and 50 μL of the test compound (in DMSO) with different concentrations (Asample). The reaction mixture was incubated for 30 min in darkness at room temperature. Meanwhile, 50 μL of 0.16 mM DPPH with 50 μL of DMSO was used as control (Acontrol), 50 μL of methanol and 50 μL of different concentrations of the test compound in DMSO were used as the sample blanks (Asample blank), 50 μL methanol with 50 μL DMSO was used as the blank (Ablank), while vitamin C was taken as a positive control. The absorbance was measured at 517 nm on the microplate reader. Scavenging capacity (%)=[(Acontrol−Ablank)−(Asample−Asample blank)]/(Acontrol−Ablank)×100%
The EC50 value is the concentration required to scavenge 50% of DPPH radicals. Likewise, the EC50 was calculated using Origin 8.0 plotting and cubic polynomial regression.

[11] = Brine shrimp larva lethality test; type: in vivo, Artemia salina; conditions: 24 h at 28 °C, read-out: Larvicidal Activity (LC50)
Method: Compounds 1‒10 were evaluated for larvicidality using the brine shrimp (Artemia salina) larva lethality test. 0.15 g of frozen eggs of brine shrimp larva (purchased from Aijia Aquarium Co., Zhanjiang, China) were activated at room temperature for 12 h. After activation, eggs were added to 1 L of artificial seawater (3% sea salt), ventilated with air for 420 mL/min, then kept at a brightness at 1000 lux and incubated at 28 °C for 24 h. After incubation, the larvae were induced to the top of the separating funnel by phototaxis, and the dead ones on bottom were discharged. Then, in each well of the 96-well plate, 1 μL of test compounds (in DMSO) with different concentrations and 99 μL of seawater containing 20‒30 live larvae were added. After incubation under light at 28 °C for 24 h, recorded the numbers of dead larvae. Finally, 10 μL of the Lucus reagent were added into each well and the total number of brine shrimp larva in the well were counted. DMSO and Hg(NO3)2 were used as blank control and positive control, respectively. Lethality rate (%)=(lethality of treatment−lethality of blank control)/survival rate of blank control×100%
The brine shrimp larva LC50 value is the concentration required to kill 50% of the larvae. Likewise, the LC50 was calculated using Origin 8.0 plotting and cubic polynomial regression.

[12] = Artemia salina (brine shrimp) larvae, live brine shrimp larvae in 96-well plate, other: immersion in seawater containing the compound

Q: For C/C=C(\C)c1cc(O)c(C)c2c1Oc1cc(O)cc(C)c1C(=O)O2 [Compound 6, unguinol], which zone of inhibition at 10 µg/disc [1] is on record?
A: Its zone of inhibition at 10 µg/disc is 8 ± 0.5 mm.

Q: And the zone of inhibition at 10 µg/disc [2]?
A: Its zone of inhibition at 10 µg/disc is 8.7 ± 2.1 mm.

Q: And the zone of inhibition at 10 µg/disc [3]?
A: The zone of inhibition at 10 µg/disc was 7 mm.

Q: And the zone of inhibition at 10 µg/disc [4]?
A: The zone of inhibition at 10 µg/disc was 7 mm.

Q: And the MIC [5]?
A: Its MIC is greater than 102 µM.

Q: What about the MIC [6] of the same molecule?
A: Its MIC is 102 µM (≈ 33.4 µg/mL).

Q: What about the MIC [7] of the same molecule?
A: The MIC was greater than 102 µM.

Q: What about the MIC ([8]; Vibrio) of the same molecule?
A: Its MIC is greater than 102 µM.

Q: And the IC50 [9]?
A: The IC50 was greater than 102 µM.

Q: And the EC50 [10]?
A: Its EC50 is greater than 102 µM.

Q: What about the LC50 at 24 h [11, 12] of the same molecule?
A: Its LC50 at 24 h is greater than 102 µM.

Q: Which zone of inhibition at 10 µg/disc [1] does the source give for CC=C(C)c1c(Cl)c(O)c(C)c2c1Oc1cc(O)c(Cl)c(C)c1C(=O)O2 [Compound 7, aspergillusidone C] here?
A: Its zone of inhibition at 10 µg/disc is 7.9 ± 0.2 mm.

Q: And the zone of inhibition at 10 µg/disc [2]?
A: The zone of inhibition at 10 µg/disc was 10 mm.

Q: And the zone of inhibition at 10 µg/disc [3]?
A: The zone of inhibition at 10 µg/disc was 9.7 ± 0.6 mm.

Q: What about the zone of inhibition at 10 µg/disc [4] of the same molecule?
A: The zone of inhibition at 10 µg/disc was 13.7 ± 2.3 mm.

Q: What about the MIC [5] of the same molecule?
A: The MIC was greater than 102 µM.

Q: And the MIC [6]?
A: The MIC was 25.6 µM (≈ 10.1 µg/mL).

Q: And the MIC [7]?
A: The MIC was greater than 102 µM.

Q: What about the MIC ([8]; Vibrio) of the same molecule?
A: The MIC was greater than 102 µM.

Q: And the IC50 [9]?
A: Its IC50 is greater than 102 µM.

Q: And the EC50 [10]?
A: The EC50 was greater than 102 µM.

Q: What about the LC50 at 24 h [11, 12] of the same molecule?
A: Its LC50 at 24 h is 72 µM.

Q: With CC=C(C)c1cc(O)c(C)c2c1Oc1cc(O)c(Cl)c(C)c1C(=O)O2 [Compound 8, 2-chlorounguinol] as the molecule, how does the zone of inhibition at 10 µg/disc [1] read?
A: The zone of inhibition at 10 µg/disc was 10 mm.

Q: And the zone of inhibition at 10 µg/disc [2]?
A: The zone of inhibition at 10 µg/disc was 11.1 ± 0.2 mm.

Q: And the zone of inhibition at 10 µg/disc [3]?
A: Its zone of inhibition at 10 µg/disc is 8.3 ± 0.6 mm.

Q: What about the zone of inhibition at 10 µg/disc [4] of the same molecule?
A: Its zone of inhibition at 10 µg/disc is 17 mm.

Q: And the MIC [5]?
A: Its MIC is greater than 102 µM.

Q: And the MIC [6]?
A: The MIC was 51.2 µM (≈ 18.5 µg/mL).

Q: What about the MIC [7] of the same molecule?
A: The MIC was 25.6 µM (≈ 9.24 µg/mL).

Q: What about the MIC ([8]; Vibrio) of the same molecule?
A: The MIC was greater than 102 µM.

Q: What about the IC50 [9] of the same molecule?
A: The IC50 was greater than 102 µM.

Q: What about the EC50 [10] of the same molecule?
A: Its EC50 is greater than 102 µM.

Q: And the LC50 at 24 h [11, 12]?
A: The LC50 at 24 h was 75.9 µM.

Q: For CC=C(C)c1c2c(c(C)c(O)c1C(=O)O)OC(=O)c1c(C)cc(O)cc1O2 [Compound 9, aspergillusidone A], which zone of inhibition at 10 µg/disc [1] is on record?
A: Its zone of inhibition at 10 µg/disc is 15.5 ± 2.2 mm.

Q: What about the zone of inhibition at 10 µg/disc [2] of the same molecule?
A: The zone of inhibition at 10 µg/disc was 16 mm.

Q: And the zone of inhibition at 10 µg/disc [3]?
A: Its zone of inhibition at 10 µg/disc is 8.3 ± 0.6 mm.

Q: What about the zone of inhibition at 10 µg/disc [4] of the same molecule?
A: Its zone of inhibition at 10 µg/disc is 17.7 ± 0.6 mm.

Q: What about the MIC [5] of the same molecule?
A: Its MIC is 6.4 µM (≈ 2.37 µg/mL).

Q: What about the MIC [6] of the same molecule?
A: Its MIC is 102 µM (≈ 37.9 µg/mL).

Q: What about the MIC [7] of the same molecule?
A: Its MIC is 12.8 µM (≈ 4.74 µg/mL).

Q: And the MIC ([8]; Vibrio)?
A: The MIC was greater than 102 µM.

Q: And the IC50 [9]?
A: Its IC50 is 56.7 µM and 56.8 µM.

Q: What about the EC50 [10] of the same molecule?
A: Its EC50 is greater than 102 µM.

Q: What about the LC50 at 24 h [11, 12] of the same molecule?
A: The LC50 at 24 h was 51.2 µM.

Q: Which results are given for CC(C)[C@H]1NC(=O)[C@H](Cc2ccccc2)NC(=O)[C@@H](C(C)C)NC(=O)[C@@H](C)NC(=O)CCCNC(=O)[C@@H](Cc2c[nH]c3ccccc23)NC(=O)[C@@H](C)NC1=O [Compound 10, unguisin A] (cyclo(F[dV][dA][dW][GABA][dA][dV]))?
A: MIC ([8]; V. parahemolyticus, microdilution method, read-out: MIC): >102.4 µM; IC50 [9]: > 102 µM; LC50 at 24 h ([11]; brine shrimp (Artemia salina), in vivo, brine shrimp larvae): > 102 µM

Q: For CC(=O)N1CCN(c2ccc(OCC3COC(Cn4ccnc4)(c4ccc(Cl)cc4Cl)O3)cc2)CC1 (centres unmarked) [Ketoconazole, reference compound], which zone of inhibition at 10 µg/disc [1] is on record?
A: The zone of inhibition at 10 µg/disc was 22 mm.

Q: What about the “Zone of Inhibition” value [2] of the same molecule?
A: Its value is “-”.

Q: What about the “Zone of Inhibition” value [3] of the same molecule?
A: The value was “-”.

Q: And the “Zone of Inhibition” value ([4]; 10 μg per disc, paper disc diameter 6.0 mm, mean ± SD of three replicates)?
A: Its value is “-”.

Q: And the MIC [5]?
A: Its MIC is 1.9 µM (≈ 1.01 µg/mL).

Q: With O=C1O[C@H]([C@@H](O)CO)C(O)=C1O [Vitamin C, vitamin C, reference compound] as the molecule, how does the EC50 [10] read?
A: Its EC50 is 31.8 µM.
